# According to ChEMBL document CHEMBL1201861, “Genomics of Drug Sensitity in Cancer screening data, Wellcome Trust Sanger Institute”:
# What was measured:
# RVH-421 = experiment: cells; assay type: functional, cell-based; details: Homo sapiens
# Description: SANGER: Inhibition of human RVH-421 cell growth in a cell viability assay.
# HCC1806 = experiment: cells; assay type: functional, cell-based; details: Homo sapiens;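 note: growth inhibition of the cancer cell line, determined with a cell viability assay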
# Description: SANGER: Inhibition of human HCC1806 cell growth in a cell viability assay.
# EGI-1 = experiment: cells; assay type: functional, cell-based; details: Homo sapiens;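 note: cell viability readout used to gauge growth inhibition of EGI-1 cells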
# Description: SANGER: Inhibition of human EGI-1 cell growth in a cell viability assay.
# OPM-2 = experiment: cells; assay type: functional, cell-based; details: Homo sapiens;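 note: growth of OPM-2 cells measured with a viability assay, IC50 for suppression of proliferation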
# Description: SANGER: Inhibition of human OPM-2 cell growth in a cell viability assay.
# P12-Ichikawa = experiment: cells; assay type: functional, cell-based; details: Homo sapiens
# D-392MG = experiment: cells; assay type: functional, cell-based; details: Homo sapiens
# CAMA-1 = experiment: cells; assay type: functional, cell-based; details: Homo sapiens;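 note: growth inhibition of CAMA-1 cells, read out with a cell viability assay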
# Description: SANGER: Inhibition of human CAMA-1 cell growth in a cell viability assay.
# NCI-H2122 = experiment: cells; assay type: functional, cell-based; details: Homo sapiens;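 note: growth inhibition of the cells, read out with a cell viability assay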
# Description: SANGER: Inhibition of human NCI-H2122 cell growth in a cell viability assay.
# RCM-1 = experiment: cells; assay type: functional, cell-based; details: Homo sapiens;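 note: growth inhibition of the RCM-1 line, determined with a cell viability readout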
# Description: SANGER: Inhibition of human RCM-1 cell growth in a cell viability assay.
# TGW = experiment: cells; assay type: functional, cell-based; details: Homo sapiens;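 note: growth inhibition of human TGW cells, read out with a cell viability assay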
# Description: SANGER: Inhibition of human TGW cell growth in a cell viability assay.
# DBTRG-05MG = experiment: cells; assay type: functional, cell-based; details: Homo sapiens;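 note: cell viability assay measuring growth inhibition of human DBTRG-05MG cells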
# Description: SANGER: Inhibition of human DBTRG-05MG cell growth in a cell viability assay.
# NCI-H1793 = experiment: cells; assay type: functional, cell-based; details: Homo sapiens;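 note: cell growth inhibition, read out by a cell viability assay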
# Description: SANGER: Inhibition of human NCI-H1793 cell growth in a cell viability assay.
# NCI-H187 = experiment: cells; assay type: functional, cell-based; details: Homo sapiens;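 note: growth inhibition of NCI-H187 cells, read out as cell viability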
# Description: SANGER: Inhibition of human NCI-H187 cell growth in a cell viability assay.
# HT1197 = experiment: cells; assay type: functional, cell-based, HT-1197; details: Homo sapiens
# Description: SANGER: Inhibition of human HT-1197 cell growth in a cell viability assay.
# DG-75 = experiment: cells; assay type: functional, cell-based; details: Homo sapiens;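 note: growth inhibition of DG-75 cells, read out with a cell viability assay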
# Description: SANGER: Inhibition of human DG-75 cell growth in a cell viability assay.
# BOKU = experiment: cells; assay type: functional, cell-based; details: Homo sapiens;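 note: growth inhibition of the human BOKU cell line, read out by a cell viability assay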
# Description: SANGER: Inhibition of human BOKU cell growth in a cell viability assay.
# MC-CAR = experiment: cells; assay type: functional, cell-based; details: Homo sapiens;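 note: growth inhibition of the human MC-CAR cell line, read out by a cell viability assay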
# Description: SANGER: Inhibition of human MC-CAR cell growth in a cell viability assay.
# SW1573 = experiment: cells; assay type: functional, cell-based; details: Homo sapiens;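 note: growth inhibition of SW1573 cells, read out with a cell viability assay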
# Description: SANGER: Inhibition of human SW1573 cell growth in a cell viability assay.
# KYSE-520 cell line = experiment: cells; assay type: functional, cell-based; details: Homo sapiens;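 note: growth inhibition of human KYSE-520 cells, read out with a viability assay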
# Description: SANGER: Inhibition of human KYSE-520 cell growth in a cell viability assay.
# SAS = experiment: cells; assay type: functional, cell-based; details: Homo sapiens;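 note: growth inhibition of SAS cells, read out with a cell viability assay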
# Description: SANGER: Inhibition of human SAS cell growth in a cell viability assay.
# 786-0 = experiment: cells; assay type: functional, cell-based; details: Homo sapiens
# Description: SANGER: Inhibition of human 786-0 cell growth in a cell viability assay.
# HCC70 = experiment: cells; assay type: functional, cell-based; details: Homo sapiens;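 note: cell viability assay measuring how strongly the compound suppresses proliferation of HCC70 cells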
# Description: SANGER: Inhibition of human HCC70 cell growth in a cell viability assay.
# TE-15 = experiment: cells; assay type: functional, cell-based; details: Homo sapiens;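 note: cell viability readout of growth inhibition in TE-15 cells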
# Description: SANGER: Inhibition of human TE-15 cell growth in a cell viability assay.
# FTC-133 = experiment: cells; assay type: functional, cell-based; details: Homo sapiens
# SCLC-21H = experiment: cells; assay type: functional, cell-based; details: Homo sapiens;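 note: growth inhibition of cultured human SCLC-21H cells, read out with a cell viability assay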
# Description: SANGER: Inhibition of human SCLC-21H cell growth in a cell viability assay.
# ESS-1 = experiment: cells; assay type: functional, cell-based; details: Homo sapiens;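 note: growth inhibition of human ESS-1 cells, read out by a cell viability assay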
# Description: SANGER: Inhibition of human ESS-1 cell growth in a cell viability assay.
# ASPC1 = experiment: cells; assay type: functional, cell-based; details: Homo sapiens;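 note: growth inhibition of AsPC-1 cells, read out with a cell viability assay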
# Description: SANGER: Inhibition of human AsPC-1 cell growth in a cell viability assay.
# COLO-680N = experiment: cells; assay type: functional, cell-based; details: Homo sapiens;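 note: cell viability assay used to measure inhibition of COLO-680N cell growth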
# Description: SANGER: Inhibition of human COLO-680N cell growth in a cell viability assay.
# HuCCT-1 = experiment: cells; assay type: functional, cell-based, HuCCT1; details: Homo sapiens;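 note: growth inhibition of HuCCT-1 cells, read out by a cell viability assay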
# Description: SANGER: Inhibition of human HuCCT1 cell growth in a cell viability assay.
# CAL-120 = experiment: cells; assay type: functional, cell-based; details: Homo sapiens;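 note: cell growth inhibition, read out as cell viability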
# Description: SANGER: Inhibition of human CAL-120 cell growth in a cell viability assay.
# SW1783 = experiment: cells; assay type: functional, cell-based; details: Homo sapiens
# Description: SANGER: Inhibition of human SW1783 cell growth in a cell viability assay.
# OAW-28 = experiment: cells; assay type: functional, cell-based; details: Homo sapiens;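 note: growth inhibition of OAW-28 cells, read out with a cell viability assay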
# Description: SANGER: Inhibition of human OAW-28 cell growth in a cell viability assay.
# NCI-H520 = experiment: cells; assay type: functional, cell-based; details: Homo sapiens;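 note: growth inhibition of NCI-H520 cells, measured by a cell viability assay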
# Description: SANGER: Inhibition of human NCI-H520 cell growth in a cell viability assay.
# SCC-25 = experiment: cells; assay type: functional, cell-based; details: Homo sapiens;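 note: growth inhibition of SCC-25 cells, measured with a cell viability assay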
# Description: SANGER: Inhibition of human SCC-25 cell growth in a cell viability assay.
# HMV-2 cell line = experiment: cells; assay type: functional, cell-based; details: Homo sapiens;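 note: growth inhibition of HMV-II cells, read out with a cell viability assay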
# Description: SANGER: Inhibition of human HMV-II cell growth in a cell viability assay.
# COLO-678 = experiment: cells; assay type: functional, cell-based; details: Homo sapiens
# Description: SANGER: Inhibition of human COLO-678 cell growth in a cell viability assay.
# YT = experiment: cells; assay type: functional, cell-based; details: Homo sapiens
# Description: SANGER: Inhibition of human YT cell growth in a cell viability assay.
# SU-DHL-1 = experiment: SANGER: Inhibition of human SU-DHL-1 cell growth in a cell viability assay.; assay type: functional, cell-based
# HSC-4 = experiment: cells; assay type: functional, cell-based; details: Homo sapiens;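 note: growth inhibition of human HSC-4 cells, read out with a cell viability assay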
# Description: SANGER: Inhibition of human HSC-4 cell growth in a cell viability assay.
# MFE-280 = experiment: cells; assay type: functional, cell-based; details: Homo sapiens;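 note: growth inhibition of MFE-280 cells, determined with a cell viability readout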
# Description: SANGER: Inhibition of human MFE-280 cell growth in a cell viability assay.
# BL-70 = experiment: SANGER: Inhibition of human BL-70 cell growth in a cell viability assay.; assay type: functional, cell-based
# CAL-72 = experiment: cells; assay type: functional, cell-based; details: Homo sapiens;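 note: cell viability assay measuring inhibition of proliferation in the CAL-72 cell line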
# Description: SANGER: Inhibition of human CAL-72 cell growth in a cell viability assay.
# SW948 = experiment: cells; assay type: functional, cell-based; details: Homo sapiens;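 note: growth inhibition of SW948 cells, read out with a cell viability assay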
# Description: SANGER: Inhibition of human SW948 cell growth in a cell viability assay.
# RPMI-6666 = experiment: cells; assay type: functional, cell-based; details: Homo sapiens
# Description: SANGER: Inhibition of human RPMI-6666 cell growth in a cell viability assay.
# MONO-MAC-6 = experiment: cells; assay type: functional, cell-based; details: Homo sapiens;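 note: cell viability assay measuring growth inhibition of human MONO-MAC-6 cells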
# Description: SANGER: Inhibition of human MONO-MAC-6 cell growth in a cell viability assay.
# 8305C = experiment: cells; assay type: functional, cell-based; details: Homo sapiens
# Description: SANGER: Inhibition of human 8305C cell growth in a cell viability assay.
# RPMI-7951 = experiment: cells; assay type: functional, cell-based; details: Homo sapiens
# Description: SANGER: Inhibition of human RPMI-7951 cell growth in a cell viability assay.
# NCI-H358 = experiment: cells; assay type: functional, cell-based; details: Homo sapiens;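 note: growth inhibition of NCI-H358 human cells, read out with a cell viability assay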
# Description: SANGER: Inhibition of human NCI-H358 cell growth in a cell viability assay.
# HLE = experiment: cells; assay type: functional, cell-based; details: Homo sapiens;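 note: growth inhibition of human HLE cells, read out by a cell viability assay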
# Description: SANGER: Inhibition of human HLE cell growth in a cell viability assay.
# Capan-2 = experiment: cells; assay type: functional, cell-based; details: Homo sapiens;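 note: Capan-2 cell growth inhibition, read out with a viability assay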
# Description: SANGER: Inhibition of human Capan-2 cell growth in a cell viability assay.
# LK-2 = experiment: cells; assay type: functional, cell-based; details: Homo sapiens;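 note: growth inhibition of LK-2 cells, read out with a viability assay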
# Description: SANGER: Inhibition of human LK-2 cell growth in a cell viability assay.
# VM-CUB-1 = experiment: cells; assay type: functional, cell-based; details: Homo sapiens;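 note: cell viability assay measuring growth inhibition of the human VM-CUB-1 cell line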
# Description: SANGER: Inhibition of human VM-CUB-1 cell growth in a cell viability assay.
# T84 = experiment: cells; assay type: functional, cell-based; details: Homo sapiens;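 note: growth inhibition measured with a cell viability readout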
# Description: SANGER: Inhibition of human T84 cell growth in a cell viability assay.
# PF-382 = experiment: cells; assay type: functional, cell-based; details: Homo sapiens
# Description: SANGER: Inhibition of human PF-382 cell growth in a cell viability assay.
# MDA-MB-415 = experiment: cells; assay type: functional, cell-based; details: Homo sapiens
# NCI-H2405 = experiment: cells; assay type: functional, cell-based; details: Homo sapiens;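 note: growth inhibition of the human cell line, read out with a cell viability assay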
# Description: SANGER: Inhibition of human NCI-H2405 cell growth in a cell viability assay.
# HGC-27 = experiment: cells; assay type: functional, cell-based; details: Homo sapiens;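 note: growth inhibition of human HGC-27 cells, read out in a cell viability assay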
# Description: SANGER: Inhibition of human HGC-27 cell growth in a cell viability assay.
# LU-99A = experiment: cells; assay type: functional, cell-based; details: Homo sapiens;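 note: growth inhibition of LU-99A cells, read out with a cell viability assay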
# Description: SANGER: Inhibition of human LU-99A cell growth in a cell viability assay.
# HCC1954 = experiment: cells; assay type: functional, cell-based; details: Homo sapiens;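 note: growth inhibition of human HCC1954 cells, read out with a cell viability assay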
# Description: SANGER: Inhibition of human HCC1954 cell growth in a cell viability assay.
# MDA-MB-453 = experiment: cells; assay type: functional, cell-based; details: Homo sapiens
# Description: SANGER: Inhibition of human MDA-MB-453 cell growth in a cell viability assay.
# NCI-H1693 = experiment: cells; assay type: functional, cell-based; details: Homo sapiens;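 note: growth inhibition of the human cell line, read out with a cell viability assay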
# Description: SANGER: Inhibition of human NCI-H1693 cell growth in a cell viability assay.
# FaDu = experiment: cells; assay type: functional, cell-based; details: Homo sapiens;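 note: cell viability readout of growth inhibition in FaDu cells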
# Description: SANGER: Inhibition of human FADU cell growth in a cell viability assay.
# NCI-H596 = experiment: cells; assay type: functional, cell-based; details: Homo sapiens;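 note: growth inhibition of NCI-H596 cells, read out with a cell viability assay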
# Description: SANGER: Inhibition of human NCI-H596 cell growth in a cell viability assay.
# REH = experiment: cells; assay type: functional, cell-based; details: Homo sapiens;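 note: growth inhibition of REH cells determined with a cell viability read-out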
# Description: SANGER: Inhibition of human REH cell growth in a cell viability assay.
compound,measurement,setting,value
CCNC(=O)c1noc(-c2cc(C(C)C)c(O)cc2O)c1-c1ccc(CN2CCOCC2)cc1 [LUMINESPIB],IC50,RVH-421,19.6 nM
same,IC50,HCC1806,111 nM
same,IC50,EGI-1,180 nM
same,IC50,OPM-2,> 256 nM
same,IC50,P12-Ichikawa,> 256 nM
same,IC50,D-392MG,38.4 nM
same,IC50,CAMA-1,63 nM
same,IC50,NCI-H2122,13.8 nM
same,IC50,RCM-1,157 nM
same,IC50,TGW,165 nM
same,IC50,DBTRG-05MG,29.6 nM
same,IC50,NCI-H1793,> 256 nM
same,IC50,NCI-H187,> 256 nM
same,IC50,HT1197,16.8 nM
same,IC50,DG-75,> 256 nM
same,IC50,BOKU,66.7 nM
same,IC50,MC-CAR,45.7 nM
same,IC50,SW1573,58 nM
same,IC50,KYSE-520 cell line,26.1 nM
same,IC50,SAS,92.1 nM
same,IC50,786-0,6.63 nM
same,IC50,HCC70,54.5 nM
same,IC50,TE-15,13.4 nM
same,IC50,FTC-133,> 256 nM
same,IC50,SCLC-21H,> 256 nM
same,IC50,ESS-1,78.7 nM
same,IC50,ASPC1,> 256 nM
same,IC50,COLO-680N,44.1 nM
same,IC50,HuCCT-1,29.6 nM
same,IC50,CAL-120,42.4 nM
same,IC50,SW1783,5.91 nM
same,IC50,OAW-28,> 256 nM
same,IC50,NCI-H520,26.6 nM
same,IC50,SCC-25,136 nM
same,IC50,HMV-2 cell line,4.49 nM
same,IC50,COLO-678,> 256 nM
same,IC50,YT,11.8 nM
same,IC50,SU-DHL-1,69.2 nM
same,IC50,HSC-4,172 nM
same,IC50,MFE-280,> 256 nM
same,IC50,BL-70,33.9 nM
same,IC50,CAL-72,166 nM
same,IC50,SW948,> 256 nM
same,IC50,RPMI-6666,8.52 nM
same,IC50,MONO-MAC-6,38.9 nM
same,IC50,8305C,30.7 nM
same,IC50,RPMI-7951,6.31 nM
same,IC50,NCI-H358,42.1 nM
same,IC50,HLE,60.8 nM
same,IC50,Capan-2,6.38 nM
same,IC50,LK-2,102 nM
same,IC50,VM-CUB-1,53.1 nM
same,IC50,T84,13.3 nM
same,IC50,PF-382,48.3 nM
same,IC50,MDA-MB-415,197 nM
same,IC50,NCI-H2405,28.9 nM
same,IC50,HGC-27,17.6 nM
same,IC50,LU-99A,72.9 nM
same,IC50,HCC1954,> 256 nM
same,IC50,MDA-MB-453,> 256 nM
same,IC50,NCI-H1693,36.2 nM
same,IC50,FaDu,67.4 nM
same,IC50,NCI-H596,174 nM
same,IC50,REH,20.6 nM
